# Source: US11542290B2 (priority 2018, dated 2023)
# Where “and” joins values, the source holds several entries; their conditions need not be identical. Equal entries are not always repeated. Where two headings read alike, the source gives them in different places.
# Assays:
# in vitro = details: human
# P-gp (MDR1) = test: in vitro; details: dog
# rps29−/− embryos = details: in vivo, cited from earlier work
# [1] = system: CD34+ hematopoietic stem and progenitor cells with rps19 knockdown; details: cited from earlier work
# Caco-2 cells [2] = details: cited from earlier work
# [3] = system: embryos of Rps29 heterozygote fish; test: Zebra fish assay (tail mutation and anemia classification, o-dianisidine staining)
# Caco-2 cells [4] = system: Caco-2 cells
# [5] = in vivo; cited from earlier work
# [6] = antipsychotic potency; cited from earlier work
# [7] = biological target: p70 ribosomal S6 kinase (p70S6K) (Homo sapiens (Human), UniProt P23443); details: profiling of over 100 kinases; cited from earlier work
# Chain of p70 ribosomal S6 kinase (p70S6K) (P23443 whole entry): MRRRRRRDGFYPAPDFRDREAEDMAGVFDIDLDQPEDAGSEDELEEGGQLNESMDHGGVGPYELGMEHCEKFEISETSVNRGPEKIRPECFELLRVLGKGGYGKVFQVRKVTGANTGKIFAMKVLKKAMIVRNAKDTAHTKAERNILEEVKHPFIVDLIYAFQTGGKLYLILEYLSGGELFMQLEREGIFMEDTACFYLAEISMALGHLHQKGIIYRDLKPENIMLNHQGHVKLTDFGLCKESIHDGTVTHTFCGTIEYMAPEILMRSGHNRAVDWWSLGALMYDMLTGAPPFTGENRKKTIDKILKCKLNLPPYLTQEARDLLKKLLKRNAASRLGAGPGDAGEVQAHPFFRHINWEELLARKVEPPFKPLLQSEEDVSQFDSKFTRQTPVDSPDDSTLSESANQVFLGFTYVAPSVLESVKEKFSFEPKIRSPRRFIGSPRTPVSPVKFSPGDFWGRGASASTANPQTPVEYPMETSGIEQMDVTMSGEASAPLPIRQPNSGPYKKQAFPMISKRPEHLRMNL
# DBA murine model = details: injection; cited from earlier work
# [8] = Caco-2, Efflux ratio Caco-2 cells
# [9] = Caco-2, Permeability coefficient (Papp) Caco-2 cells (A -> B)
# [10] = Caco-2, Permeability coefficient (Papp) Caco-2 cells (B -> A)
# [11] = MDCK-MDR1, Efflux ratio MDCK-MDR1 cells
# [12] = MDCK-MDR1, Permeability coefficient (Papp) MDCK-MDR1 cells (A -> B)
# [13] = MDCK-MDR1, Permeability coefficient (Papp) MDCK-MDR1 cells (B -> A)
# [14] = 10 μM of the compound, 48 hours of treatment from 24 hours post fertilization
smiles,measurement,setting,value
c1ccc2c(c1)Nc1ccccc1S2 [10H-phenothiazine],Papp A→B at 2 h,in vitro; Caco-2,42.7 ×10⁻⁶ cm/s
same,Papp B→A at 2 h,in vitro; Caco-2,37.7 ×10⁻⁶ cm/s
same,efflux ratio at 2 h,in vitro; Caco-2,0.88
same,Papp A→B at 60 min,P-gp (MDR1); MDCK-MDR1,53.8 ×10⁻⁶ cm/s
same,Papp B→A at 60 min,P-gp (MDR1); MDCK-MDR1,38 ×10⁻⁶ cm/s
same,efflux ratio at 60 min,P-gp (MDR1); MDCK-MDR1,0.71
CC1(CN2CCC(n3c(=O)[nH]c4ccccc43)CC2)OCc2ccccc2-n2cccc21.O=C(O)/C=C\C(=O)O (stereo not shown) [CGS-9343B],Endothelial defect in rps29 mutant embryos (in words),rps29−/− embryos; zebrafish,successfully rescued the endothelial defect
NCCNS(=O)(=O)c1cccc2c(Cl)cccc12 [Compound A-3],Concentration decreasing the levels of p21 in CD34+ cells,[1]; in vitro,1 to 50 µM
same,p53 and p21 levels or nuclear localization (in words),[1]; rps19 knockdown by siRNA,decreased p53 and p21 levels or nuclear localization
same,Hemoglobin levels in the zebrafish embryo (in words),rps29−/− embryos,rescued hemoglobin levels
same,Morphology of the embryo head (in words),rps29−/− embryos; zebrafish,improved the morphology of the apoptotic embryo head
NCCCCCCCCCCNS(=O)(=O)c1cccc2c(Cl)cccc12 [Compound A-7],Vascular defects in rps29 mutant embryos (in words),rps29−/− embryos; zebrafish,rescued vascular defects
NCCCCCCNS(=O)(=O)c1cccc2ccccc12 [Compound W-5],Vascular defects in rps29 mutant embryos (in words),rps29−/− embryos; zebrafish,rescued vascular defects
NCCCCCCNS(=O)(=O)c1cccc2c(Cl)cccc12 [Compound W-7],Hemoglobin levels in the zebrafish embryo (in words),rps29−/− embryos,rescued hemoglobin levels
same,Endothelial defect in rps29 mutant embryos (in words),rps29−/− embryos; zebrafish,rescued the endothelial defect
CC[C@H]1OC(=O)[C@H](C)[C@@H](O[C@H]2C[C@@](C)(OC)[C@@H](O)[C@H](C)O2)[C@H](C)[C@@H](O[C@@H]2O[C@H](C)C[C@H](N(C)C)[C@H]2O)[C@](C)(O)C[C@@H](C)C(=O)[C@H](C)[C@@H](O)[C@]1(C)O [Erythromycin],efflux ratio at 2 h,in vitro; [8],> 173
same,Papp A→B at 2 h,in vitro; [9],0.21 ×10⁻⁶ cm/s
same,Papp B→A at 2 h,in vitro; [10],21.9 ×10⁻⁶ cm/s
same,Efflux status of reference compound (in words),Caco-2 cells [2]; Caco-2,efflux substrates
same,efflux ratio at 60 min,P-gp (MDR1); [11],0.96
same,Papp A→B at 60 min,P-gp (MDR1); [12],31.9 ×10⁻⁶ cm/s
same,Papp B→A at 60 min,P-gp (MDR1); [13],30.6 ×10⁻⁶ cm/s
"OCCN1CCN(CCCN2c3ccccc3Sc3ccc(C(F)(F)F)cc32)CC1 [Fluphenazine, 4-[3-[2-(trifluoromethyl)phenothiazin-10-yl]lpropyl]-1-piperazineethanol]",Endothelial defect in rps29 mutant embryos (in words),rps29−/− embryos; zebrafish,successfully rescued the endothelial defect
"FC(F)(F)c1ccc2c(c1)N(CCCCN1CCCCC1)c1ccccc1S2 [MT-009, 10-(4-(piperidin-1-yl)butyl)-2-(trifluoromethyl)-10H-phenothiazine]",efflux ratio at 2 h,in vitro; [8],0.68
same,Papp A→B at 2 h,in vitro; [9],3.81 ×10⁻⁶ cm/s
same,Papp B→A at 2 h,in vitro; [10],2.61 ×10⁻⁶ cm/s
same,Efflux ratio MDCK-MDR1 cells,"MDCK-MDR1 cells; dog, MDCK-MDR1, 60 min",0
same,Papp A→B at 60 min,P-gp (MDR1); [12],< 1.42 ×10⁻⁶ cm/s
"OCCN(CCO)CC(O)CN1c2ccccc2Sc2ccc(C(F)(F)F)cc21 (stereo not shown) [MT-014, 2,2′-(2-hydroxy-3-(2-(trifluoromethyl)-10H-phenothiazin-10-yl)propylazanediyl)-diethanol]",Tail and anemia phenotypes versus DMSO (in words),"[3]; 10 μM, three experiments",less severe tail and anemia phenotypes
"OCCOCCOCCN1CCN(CC(O)CN2c3ccccc3Sc3ccc(C(F)(F)F)cc32)CC1 (stereo not shown) [MT-016, 1-(4-(2-(2-(2-hydroxyethoxy)ethoxy)ethyl)piperazin-1-yl)-3-(2-(trifluoromethyl)-10H-phenothiazin-10-yl)propan-2-ol]",efflux ratio at 2 h,in vitro; [8],1.33
same,Papp A→B at 2 h,in vitro; [9],12.5 ×10⁻⁶ cm/s
same,Papp B→A at 2 h,in vitro; [10],16.6 ×10⁻⁶ cm/s
same,Ratio of embryos in group MA (mutant anemic),[3]; [14],7% and 9% and 5%
same,Ratio of embryos in group MNA (mutant not anemic),[3]; [14],7% and 8%
same,Ratio of embryos in group MPA (mutant partial anemic),[3]; [14],17% and 10% and 15%
same,Ratio of embryos in group WT (wild type),[3]; [14],69% and 74% and 72%
same,efflux ratio at 60 min,P-gp (MDR1); [11],> 9.83
same,Papp A→B at 60 min,P-gp (MDR1); [12],1.05 ×10⁻⁶ cm/s
same,Papp B→A at 60 min,P-gp (MDR1); [13],10.3 ×10⁻⁶ cm/s
"CS(=O)(=O)NCC1CCN(CC(O)CN2c3ccccc3Sc3ccc(C(F)(F)F)cc32)CC1 (stereo not shown) [MT-036, N-((1-(2-hydroxy-3-(2-(trifluoromethyl)-10H-phenothiazin-10-yl)propyl)piperidin-4-yl)methyl)methanesulfonamide]",Permeability coefficient (Papp) Caco-2 cells (A -> B),"Caco-2 cells [4]; apical to basolateral, 2-hour",8.55 10^−6 cm/s
same,Permeability coefficient (Papp) Caco-2 cells (B -> A),"Caco-2 cells [4]; basolateral to apical, 2-hour",15.93 10^−6 cm/s
same,Efflux ratio Caco-2 cells,"Caco-2 cells [4]; from mean Papp B-A and A-B, 2-hour transport",1.86
same,Permeability coefficient (Papp) MDCK-MDR1 cells (A -> B),"MDCK-MDR1 cells; apical to basolateral, 60-min, 37° C.",2.85 10^−6 cm/s
same,Permeability coefficient (Papp) MDCK-MDR1 cells (B -> A),"MDCK-MDR1 cells; basolateral to apical, 60-min, 37° C.",13.91 10^−6 cm/s
same,Efflux ratio MDCK-MDR1 cells,"MDCK-MDR1 cells; from mean Papp B-A and A-B, 60-min transport, 37° C.",4.89
COCCc1ccc(OCC(O)CNC(C)C)cc1 (stereo not shown) [Metoprolol],efflux ratio at 2 h,in vitro; [8],0.89
same,Papp A→B at 2 h,in vitro; [9],33.8 ×10⁻⁶ cm/s
same,Papp B→A at 2 h,in vitro; [10],30.2 ×10⁻⁶ cm/s
same,Efflux ratio Caco-2 cells,"Caco-2 cells [4]; human, Caco-2, 2 h",1.11
same,Efflux ratio MDCK-MDR1 cells,"MDCK-MDR1 cells; dog, MDCK-MDR1, 60 min",0.85
same,Cell permeability of reference compound (in words),Caco-2 cells [2],high cell permeability
same,efflux ratio at 60 min,P-gp (MDR1); [11],0.81
"OCCN1CCN(CCCN2c3ccccc3Sc3ccc(Cl)cc32)CC1 [Perphenazine, 4-[3-(2-Chloro-10H-phenothiazin-10-yl)propyl]-1-piperazineethanol]",Oral bioavailability,[5],approximately 40%
same,Potency relative to chlorpromazine,[6],approximately 5 times
same,Endothelial defect in rps29 mutant embryos (in words),rps29−/− embryos; zebrafish,successfully rescued the endothelial defect
CN1CCN(CCCN2c3ccccc3Sc3ccc(Cl)cc32)CC1 [Prochloperazine],efflux ratio at 2 h,in vitro; [8],0.35
same,Papp A→B at 2 h,in vitro; [9],1.29 ×10⁻⁶ cm/s
same,Papp B→A at 2 h,in vitro; [10],0.46 ×10⁻⁶ cm/s
same,Papp A→B at 60 min,P-gp (MDR1); [12],< 1.28 ×10⁻⁶ cm/s
same,Papp B→A at 60 min,P-gp (MDR1); [13],< 0.59 ×10⁻⁶ cm/s
C=C[C@H]1C[N@@]2CC[C@H]1C[C@@H]2[C@@H](O)c1ccnc2ccc(OC)cc12 [Quinidine],Papp A→B at 60 min,P-gp (MDR1); [12],10.1 ×10⁻⁶ cm/s
same,Papp B→A at 60 min,P-gp (MDR1); [13],44 ×10⁻⁶ cm/s
CN1CCN(CCCN2c3ccccc3Sc3ccc(S(=O)(=O)N(C)C)cc32)CC1 [Thioproperazine Dimesilate],Papp A→B at 2 h,in vitro; [9],4.07 ×10⁻⁶ cm/s
same,Papp B→A at 2 h,in vitro; [10],3.51 ×10⁻⁶ cm/s
same,Papp A→B at 60 min,P-gp (MDR1); [12],3.35 ×10⁻⁶ cm/s
same,Papp B→A at 60 min,P-gp (MDR1); [13],3.56 ×10⁻⁶ cm/s
"CN1CCN(CCCN2c3ccccc3Sc3ccc(C(F)(F)F)cc32)CC1 [Trifluoperazine, 10-[3-(4-methylpiperazin-1-yl)propyl]-2-(trifluoromethyl)phenothiazine]",Kinase activity of p70S6K (in words),[7],inhibited the activity
same,Red blood cell number and hemoglobin levels (in words),DBA murine model,significantly increased red blood cell number and hemoglobin levels
same,p53 activity in the bone marrow (in words),DBA murine model,reduced p53 activity in the bone marrow
same,Concentration restoring the percentage of CD71+ cells in an erythroid cell population,[1]; in vitro,5 to 20 µM
same,Erythroid differentiation block (in words),"[1]; shRNA against RPS19, primary CD34+ bone marrow cells from DBA patients",relieved the erythroid differentiation block
same,Endothelial defect in rps29 mutant embryos (in words),rps29−/− embryos; zebrafish,successfully rescued the endothelial defect
same,Papp A→B at 60 min,P-gp (MDR1); [12],< 0.87 ×10⁻⁶ cm/s
